Reference: patent US6900202B2, “Di-substituted imineheterocyclic compounds” (priority 2000, dated 2005)

Columns and labels:
[1] = molecular target: T1, human α4β2 subtype of nicotinic acetylcholine receptors (Homo sapiens, UniProt P17787+P43681); format: cell-based
T1 construct: expressed in transfected cells; host or cells: Xenopus laevis oocytes injected with hnACh-R α4 and β2 cRNA (pSP64 polyA vector)
Method: The agonist effect in human α4β2 subtype of nicotinic acetylcholine receptors are examined by using human nicotinic acetylcholine receptors prepared in oocytes of Xenopus laevis, which is injected with cRNA from the corresponding cloning cDNA of human α4 and β2 subunits of nicotinic acetylcholine receptors, and to measure the expression of the electric response by adding the test compounds to perfusion solution by means of membrane potential holding method.
Agonist Activities at Human α4β2 Subtype of Nicotinic Acetylcholine Receptors
The agonist activities of the compounds of the present invention at human α4β2 subtype of nicotinic acetylcholine receptors was evaluated by the following method, which was modified method described by Papke R. L., Thinschmidt J. S., Moulton B. A., Meyer E. M. & Poirier A., Br. J. Pharmacol., 120, 429-438 (1997).
(1) Preparation of cRNA of Human α4β2 Subtype of Nicotinic Acetylcholine Receptors
The cloning of human nicotinic acetylcholine receptor (hnACh-R) α4 cDNA and hnAC-R β2 cDNA were performed, in accordance with the conventional manners, by synthesizing the each DNA primers corresponding to the sequences of hnACh-R α4 cDNA and hnACh-R β2 cDNA [Monteggia L. M. et al., Gene, 155, 189-193 (1995); and Anand R., & Lindstrom J., Nucl. Acids Res., 18, 4272 (1990)], and obtained hnACh-R α4 cDNA and hnACh-R β2 cDNA by polymerase chain reaction (PCR), respectively. The obtained hnACh-R α4 cDNA and hnACh-R β2 cDNA were inserted to the cRNA expression vector (pSP64 polyA) having SP6 RNA promoter to construct hnACh-R α4/pSP64 polyA and hnACh-R β2/pSP64 polyA, respectively. After cutting from expression vector by restriction enzyme (EcoRI), transcription was performed by affecting SP6 RNA polymerase in the presence of cap analogues to obtain hnACh-R α4 cRNA and hnACh-R β2 cRNA, respectively.
(2) Expression of Human α4β2 Subtype Nicotinic Acetylcholine Receptors in Xenopus Oocytes
Oocytes were purchased from Kitanihonseibustukyohzai Co., Ltd., which were already enucleated from Xenopus laevis, and used in this experiment.
The oocytes were treated with collagenase (Sigma type I; 1 mg/ml) in calcium-free modified Birth's solution (88 mM of NaCl, 1 mM of KCl, 2.4 mM of NaHCO3, 0.82 mM of MgSO4, 15 mM of HEPES, pH 7.6) under gently stirring at the room temperature for 90 minutes, and washed out the enzyme from the tissue. Then, oocytes were separated from ovarian follicle by tweezers, and isolated oocytes were placed in antibiotics containing modified Birth's solution (88 mM of NaCl, 1 mM of KCl, 2.4 mM of NaHCO3, 0.82 mM of MgSO4, 15 mM of HEPES, pH 7.6, and 0.1 v/v % of mixture solution containing of penicillin and streptomycin for incubation; Sigma Co.). Thus treated oocytes were injected with 50 nl of adjusted cRNAs (1.0 mg/ml), that is, each 50 ng of hnACh-R α4 cRNA and hnACh-R β2 cRNA per 1 oocyte by using automatic injector (NANOJECT; DRUMMOND […] CO.), and further incubated for 4-14 days at 19° C. In oocytes, heterogeneous quintuple [(α4)2(β2)3] was composed by translation of injected cRNAs, and ion channel receptors were constructed on cell membrane.
(3) Agonist Activities at Human α4β2 Subtype of Nicotinic Acetylcholine Receptors
The recordings of responses at human α4β2 subtype of nicotinic acetylcholine receptors by means of membrane potential holding method were performed as follow. […] Test compounds were added to the perfusion solution, and recorded the peak strength of induced inward electric current. […]

[2] = molecular target: T2, α4β2 subtype of nicotinic acetylcholine receptors (Rattus norvegicus, UniProt P09483+P12390); assay: Binding assay at α4β2 subtype of nicotinic acetylcholine receptors ([3H]-cytisine, rat brain membrane)
T2 construct: examined using rat brain membrane obtained from whole homogenized brain; from tissue; host or cells: whole brain membranes of Fischer-344 male rats
Source text: (§1) The methods for evaluating the binding capabilities of the compounds against nicotinic acetylcholine receptors are different by subtypes of receptors. The binding capabilities of the compounds at α4β2 nicotinic acetylcholine receptors are examined using rat brain membrane obtained from whole homogenized brain, and determining the inhibiting rate of the compounds against [^3H]-cytisine binding to said brain membrane. Furthermore, the binding capabilities of the compounds at α1β1γδ nicotinic acetylcholine receptors are examined using homogenized rat muscle, and determining the inhibiting rate of the compounds against [^3H]-α-bungarotoxin binding to said muscle membrane.
Binding Assays at α4β2 Subtype of Nicotinic Acetylcholine Receptors
The affinity of the compounds of the present invention to α4β2 subunit of nicotinic acetylcholine receptors was performed by the following method, which was modified method described by Pabreza L. A., Dhawan S. & Kellar K. J., Mol. Pharm., 39, 9-12 (1990), and by Anderson D. J. & Arneric S. P., Eur. J. Pharm., 253, 261-267 (1994).
(1) Preparation of Rat Brain Membrane Containing α4β2 subtype of Nicotinic Acetylcholine Receptors
Fischer-344 strain male rats (body weight: 200-240 g; 9 weeks old) obtained from Charles River Japan were used. Rats were housed in the breeding cage controlled of the room temperature at 23±1° C., and the humidity of 55±5% for 1 to 4 weeks. Rats (3 to 4 rats per a cage) were housed with lights on for 12 hours daily (from 7:00 to 19:00), and allowed free access to food and water.
Preparation of rat brain membrane containing α4β2 subtype of nicotinic acetylcholine receptors was performed as follow. That is, rat brains were isolated just after sacrificed by decapitation, washed with ice-cooled saline solution and then frozen at −80° C. with liquid nitrogen and stored till using. After thawing the frozen brain, the brain was homogenized in 10 volumes of buffer solution (50 mM of Tris-HCl, 120 mM of NaCl, 5 mM of KCl, 1 mM of MgCl2, 2mM of CaCl2; pH 7.4; 4° C.) using homogenizer (HG30, Hitachi Kohki Ltd.) for 30 seconds, and the homogenate were centrifuged under 1,000×G for 10 minutes at 4° C. The resulting supernatant was separated and the pellet was homogenized again with half volume of aforementioned prior buffer solution and centrifuged under the same conditions. Combined supernatant was further centrifuged under 40,000×G for 20 minutes at 4° C. The pellet was suspended in buffer solution and used for binding assays at receptors.
(2) Experiments of α4β2 Subtype of Nicotinic Acetylcholine Receptors Binding
Suspensions of membrane pellets containing 400-600 μg of protein were added to test tubes containing test compounds and [^3H]-cytisine (2 nM) in a final volume of 200 μl and incubated for 75 minutes in ice-cooled bath. The samples were isolated by vacuum filtration onto Whatman GF/B filters, which were prerinsed with 0.5% polyethylenimine just prior to sample filtration, using Brandel multi manifold cell harvester. The filters were rapidly washed with buffer solution (3×1 ml). The filters were counted in 3 ml of clearsol I (Nacalai Tesque Inc.).
The analyses of the experimental results were conducted by using the Accufit Competition Program (Beckman Ltd.).

[3] = molecular target: T3, α1β1γδ subtype of nicotinic acetylcholine receptors (Rattus norvegicus, UniProt P18916+P25108+P25109+P25110); assay: biochemical; format: binding
T3 construct: The centrifugation at 100,000×G for 60 minutes at 4° C. yielded the rat muscle extract as supernatant
Source text: as §1
Binding Assays at α1β1γδ Subtype of Nicotinic Acetylcholine Receptors
The affinity of the compounds of the present invention to α1β1γδ subtype of nicotinic acetylcholine receptors was measured by the following method, which was modified method described by Garcha H. S., Thomas P., Spivak C.
(1) Preparation of Rat Skeletal Muscles Containing α1β1γδ Subtype of Nicotinic Acetylcholine Receptors
The substantially same animals described in the Biological Experiment 1 were used.
The isolation of α1β1γδ subtype of nicotinic acetylcholine receptors was performed as follow. That is, rat posterior skeletal muscles were isolated just after sacrificed by decapitation, washed with ice-cooled saline solution and then frozen at −80° C. with liquid nitrogen and stored till using. After thawing the frozen muscles, tissue was homogenized (40% w/v) with buffer solution [2.5 mM of sodium phosphate buffer (pH:7.2), 90 mM of NaCl, 2 mM of KCl, 1 mM of EDTA, 2 mM of benzamidine, 0.1 mM of benzethonium chloride, 0.1 mM of PMSF, 0.01% of sodium azide] in Waring blender [Waring blender 34BL97; WARING PRODUCTS DIVISION DYNAMICS CORPORATION OF AMERICA) for 60 seconds. The homogenate were centrifuged under 20,000×G for 60 minutes at 4° C. The supernatant was separated and the resulting pellet was added to the same buffer (1.5 ml/g wet weight), and homogenized under the same conditions. Triton X100 (2% w/v) was added and the mixture was stirred for 3 hours at 4° C. The centrifugation at 100,000×G for 60 minutes at 4° C. yielded the rat muscle extract as supernatant. This was stored at 4° C. for up to 4 weeks, and used for binding assays at receptors.
(2) Experiments of α1β1γδ Subtype of Nicotinic Acetylcholine Receptors Binding
Receptors binding experiments were performed as follow. That is, the extract of rat muscle containing 600-900 μg of protein was added to test tubes containing test compounds and incubated for 15 minutes at 37° C. Then, to this mixture was added 1 nM of [^3H]-α-bungarotoxin (α-Bgt) and further incubated for 2 hours. The samples were isolated by vacuum filtration onto Whatman GF/B filters, which were prerinsed with 0.5% polyethylenimine just prior to sample filtration, using Brandel multi manifold cell harvester. The filters were rapidly rinsed with washing solution (10 mM of KH2PO4, 150 mM of NaCl, pH 7.2, room temperature) (5×1 ml). The filters were counted in 3 ml of clearsol I (Nacalai Tesque Inc.). The determination of nonspecific binding was incubated in the presence of 1 μM α-Bgt. […] In the receptor binding experiments, said buffer solution was added for adjusting the final concentration of BSA to be 0.05%.
The analyses of the experimental results were conducted by as described in the Biological Experiment 1.

T1 sequence (P43681 29-627 limits assumed): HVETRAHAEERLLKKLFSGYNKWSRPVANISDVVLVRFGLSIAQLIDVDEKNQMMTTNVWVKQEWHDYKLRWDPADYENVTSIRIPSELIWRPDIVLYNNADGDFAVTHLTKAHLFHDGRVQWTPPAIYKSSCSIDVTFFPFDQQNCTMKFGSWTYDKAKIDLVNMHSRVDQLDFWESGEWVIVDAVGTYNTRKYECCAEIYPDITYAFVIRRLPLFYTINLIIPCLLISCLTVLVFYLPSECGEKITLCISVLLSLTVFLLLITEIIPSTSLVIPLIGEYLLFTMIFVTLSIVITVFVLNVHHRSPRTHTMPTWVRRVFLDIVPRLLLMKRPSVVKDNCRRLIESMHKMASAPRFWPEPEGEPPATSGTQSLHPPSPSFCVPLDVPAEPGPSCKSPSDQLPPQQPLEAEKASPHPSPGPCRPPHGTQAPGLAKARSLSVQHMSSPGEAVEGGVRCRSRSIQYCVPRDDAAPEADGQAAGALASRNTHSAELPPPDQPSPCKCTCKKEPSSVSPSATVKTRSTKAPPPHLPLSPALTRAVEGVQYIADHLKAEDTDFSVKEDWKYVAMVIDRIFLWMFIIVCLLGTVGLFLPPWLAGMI
T1 sequence (P17787 26-502): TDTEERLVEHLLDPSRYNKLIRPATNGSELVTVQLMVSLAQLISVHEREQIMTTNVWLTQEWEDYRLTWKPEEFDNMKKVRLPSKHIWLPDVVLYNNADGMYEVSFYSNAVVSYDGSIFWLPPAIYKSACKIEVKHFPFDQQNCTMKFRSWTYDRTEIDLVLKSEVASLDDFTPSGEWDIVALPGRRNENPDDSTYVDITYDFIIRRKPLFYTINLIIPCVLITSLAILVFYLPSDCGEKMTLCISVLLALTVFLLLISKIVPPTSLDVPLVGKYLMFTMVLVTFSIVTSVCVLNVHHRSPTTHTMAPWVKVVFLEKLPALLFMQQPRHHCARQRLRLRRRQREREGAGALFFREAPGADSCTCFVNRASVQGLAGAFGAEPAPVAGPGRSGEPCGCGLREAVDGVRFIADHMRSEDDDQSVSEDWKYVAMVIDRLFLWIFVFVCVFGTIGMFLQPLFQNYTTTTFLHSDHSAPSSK
T3 sequence (P25108 21-457): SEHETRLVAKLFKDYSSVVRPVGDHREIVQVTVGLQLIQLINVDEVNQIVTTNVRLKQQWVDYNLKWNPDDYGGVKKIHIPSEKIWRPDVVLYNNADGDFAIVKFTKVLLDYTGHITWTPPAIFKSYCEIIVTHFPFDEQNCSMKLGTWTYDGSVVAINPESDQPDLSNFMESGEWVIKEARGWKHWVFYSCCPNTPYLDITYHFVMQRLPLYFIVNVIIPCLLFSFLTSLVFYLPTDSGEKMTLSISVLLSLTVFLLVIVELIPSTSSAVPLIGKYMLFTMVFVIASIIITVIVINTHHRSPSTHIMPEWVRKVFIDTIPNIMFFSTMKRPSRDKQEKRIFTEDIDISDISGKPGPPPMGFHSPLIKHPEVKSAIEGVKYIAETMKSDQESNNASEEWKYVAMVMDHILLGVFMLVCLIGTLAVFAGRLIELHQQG
T3 sequence (P25109 24-501): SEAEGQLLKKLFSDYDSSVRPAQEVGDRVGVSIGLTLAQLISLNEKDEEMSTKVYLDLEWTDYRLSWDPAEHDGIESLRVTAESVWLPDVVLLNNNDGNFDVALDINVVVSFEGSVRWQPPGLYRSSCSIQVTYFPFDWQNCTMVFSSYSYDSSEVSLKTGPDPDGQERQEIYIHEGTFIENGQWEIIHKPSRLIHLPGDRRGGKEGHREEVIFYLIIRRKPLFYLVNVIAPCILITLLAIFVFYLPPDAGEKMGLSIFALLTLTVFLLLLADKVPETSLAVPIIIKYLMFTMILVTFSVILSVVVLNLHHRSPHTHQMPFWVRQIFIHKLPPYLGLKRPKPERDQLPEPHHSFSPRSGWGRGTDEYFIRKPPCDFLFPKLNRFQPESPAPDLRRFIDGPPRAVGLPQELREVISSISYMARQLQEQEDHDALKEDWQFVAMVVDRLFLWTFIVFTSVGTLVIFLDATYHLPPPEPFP
T3 sequence (P25110 22-517): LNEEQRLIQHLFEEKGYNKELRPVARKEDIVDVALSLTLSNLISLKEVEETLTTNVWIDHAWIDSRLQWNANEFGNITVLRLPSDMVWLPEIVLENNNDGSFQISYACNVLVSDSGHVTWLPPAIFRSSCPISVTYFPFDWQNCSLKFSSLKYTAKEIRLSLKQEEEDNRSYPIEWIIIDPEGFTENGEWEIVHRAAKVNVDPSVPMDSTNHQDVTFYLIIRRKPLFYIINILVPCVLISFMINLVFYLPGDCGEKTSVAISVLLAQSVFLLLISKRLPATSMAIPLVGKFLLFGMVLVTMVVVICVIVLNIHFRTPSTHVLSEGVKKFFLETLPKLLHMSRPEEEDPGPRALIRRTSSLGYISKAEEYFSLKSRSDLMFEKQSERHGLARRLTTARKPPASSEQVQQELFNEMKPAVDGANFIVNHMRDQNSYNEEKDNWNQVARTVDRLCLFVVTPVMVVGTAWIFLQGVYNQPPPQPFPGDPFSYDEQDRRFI
T2 sequence (P09483 31-630): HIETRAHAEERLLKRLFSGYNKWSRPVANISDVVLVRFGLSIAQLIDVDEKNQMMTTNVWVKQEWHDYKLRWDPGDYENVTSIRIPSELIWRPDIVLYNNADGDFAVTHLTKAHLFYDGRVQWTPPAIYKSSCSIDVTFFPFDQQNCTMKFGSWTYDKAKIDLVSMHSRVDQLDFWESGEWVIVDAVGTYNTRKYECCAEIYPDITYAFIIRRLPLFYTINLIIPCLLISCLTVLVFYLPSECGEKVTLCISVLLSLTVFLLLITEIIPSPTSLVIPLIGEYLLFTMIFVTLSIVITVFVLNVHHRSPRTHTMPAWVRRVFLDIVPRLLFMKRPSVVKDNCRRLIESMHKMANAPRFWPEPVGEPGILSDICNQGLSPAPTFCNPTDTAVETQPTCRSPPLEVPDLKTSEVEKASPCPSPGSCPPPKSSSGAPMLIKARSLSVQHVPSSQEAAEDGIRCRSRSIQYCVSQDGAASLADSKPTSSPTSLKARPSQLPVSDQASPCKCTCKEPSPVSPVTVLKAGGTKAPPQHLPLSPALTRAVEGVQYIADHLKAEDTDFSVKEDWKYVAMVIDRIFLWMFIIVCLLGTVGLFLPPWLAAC
T2 sequence (P12390 25-500): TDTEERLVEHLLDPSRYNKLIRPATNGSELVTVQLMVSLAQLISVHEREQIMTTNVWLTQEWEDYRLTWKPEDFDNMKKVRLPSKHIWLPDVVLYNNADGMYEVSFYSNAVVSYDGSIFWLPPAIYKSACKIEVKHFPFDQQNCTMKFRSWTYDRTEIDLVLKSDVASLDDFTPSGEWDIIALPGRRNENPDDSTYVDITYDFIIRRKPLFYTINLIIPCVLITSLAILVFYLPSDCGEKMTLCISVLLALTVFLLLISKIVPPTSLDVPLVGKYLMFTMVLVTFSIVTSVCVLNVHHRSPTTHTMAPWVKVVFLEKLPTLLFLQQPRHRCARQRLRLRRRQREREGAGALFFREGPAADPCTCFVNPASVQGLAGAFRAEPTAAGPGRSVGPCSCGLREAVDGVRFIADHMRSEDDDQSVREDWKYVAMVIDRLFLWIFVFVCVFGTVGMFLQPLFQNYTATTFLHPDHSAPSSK

SMILES | Agonist effect [1] [%] | Ki [2] [µM] | Ki [3] [µM]
CN1CCCC1c1cccnc1 (single isomer, unassigned; (-)) [Nicotine, (−)-nicotine, reference compound] | 146 | – | –
Clc1ccc(CC/N=C2\SCCN2Cc2ccc(Cl)nc2)cn1 [Compound 15, 3-(6-chloro-3-pyridyl)methyl-2-[2-(6-chloro-3-pyridyl)ethyl]iminothiazolidine] | – | 0.086 | 479
